Patent publication US12252524B2, “GIP/GLP1 co-agonist compounds” (Eli Lilly and Company, priority 2018, dated 2025)
Numbered stars: 1 amine (or outer) side, 2 acyl side, 3 side chain; on linkers, the order of the positions; unused ones are H or OH. Square brackets hold non-standard residues; d marks the D form. Side chains are listed from the residue outwards. Peptide text beside a SMILES is read from it. * marks the point of attachment. C20 diacid = O=C(O)CCCCCCCCCCCCCCCCCCC(=O)*; αMePhe(2-F) = C[C@](N)(Cc1ccccc1F)C(=O)O; γGlu = O=C(O)[C@H](CCC(=O)[*:2])N[*:1]; αMeF = C[C@](N)(Cc1ccccc1)C(=O)O; 4Pal = N[C@@H](Cc1ccncc1)C(=O)O; αMeL = CC(C)C[C@](C)(N)C(=O)O; AEEA = NCCOCCOCC(=O)O; Aib = CC(C)(N)C(=O)O

What was measured:
human Gcg receptor = target: T1, human Gcg receptor (Homo sapiens, UniProt P47871); assay: [125I]-Glucagon binding (SPA), human Gcg receptor; conditions: read-out: hGLcgR Ki, nM (SEM, n)
T1 construct: expressed in transfected cells; crude membranes
T1 sequence (P47871 26-477): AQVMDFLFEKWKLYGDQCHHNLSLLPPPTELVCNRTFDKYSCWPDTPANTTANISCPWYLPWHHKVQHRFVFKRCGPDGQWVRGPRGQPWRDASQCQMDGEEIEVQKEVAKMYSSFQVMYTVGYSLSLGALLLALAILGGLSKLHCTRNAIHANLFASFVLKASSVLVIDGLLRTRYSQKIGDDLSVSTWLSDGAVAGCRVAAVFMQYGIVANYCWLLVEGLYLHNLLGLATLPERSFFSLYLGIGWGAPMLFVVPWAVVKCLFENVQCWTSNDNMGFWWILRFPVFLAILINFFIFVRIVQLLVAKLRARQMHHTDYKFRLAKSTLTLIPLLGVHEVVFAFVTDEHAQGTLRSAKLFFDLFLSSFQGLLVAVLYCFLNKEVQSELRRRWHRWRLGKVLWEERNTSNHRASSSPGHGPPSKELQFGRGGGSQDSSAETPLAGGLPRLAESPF
Experimental: (§1) Two methods are used for the preparation of crude cell membranes.
(§2) Method 1: Frozen cell pellets are lysed on ice in hypotonic buffer containing 50 mM Tris HCl, pH 7.5, and Roche Complete™ Protease Inhibitors with EDTA. The cell suspension is disrupted using a glass Potter-Elvehjem homogenizer fitted with a Teflon® pestle for 25 strokes. The homogenate is centrifuged at 4° C. at 1100×g for 10 minutes. The supernatant is collected and stored on ice while the pellets are resuspended in homogenization buffer and rehomogenized as described above. The homogenate is centrifuged at 1100×g for 10 minutes. The second supernatant is combined with the first supernatant and centrifuged at 35000×g for 1 hour at 4° C. The resulting membrane pellet is resuspended in homogenization buffer containing protease inhibitors at approximately 1 to 3 mg/mL, quick frozen in liquid nitrogen and stored as aliquots in a−80° C. freezer until use.
(§3) Method 2: Frozen cell pellets are lysed on ice in hypotonic buffer containing 50 mM Tris HCl, pH 7.5, 1 mM MgCl2, Roche Complete™ EDTA-free Protease Inhibitors and 25 units/ml DNAse I (Invitrogen). The cell suspension is disrupted using a glass Potter-Elvehjem homogenizer fitted with a Teflon® pestle for 20 to 25 strokes. The homogenate is centrifuged at 4° C. at 1800×g for 15 minutes. The supernatant is collected and stored on ice while the pellets are resuspended in homogenization buffer (without DNAse I) and rehomogenized as described above. The homogenate is centrifuged at 1800×g for 15 minutes. The second supernatant is combined with the first supernatant and centrifuged an additional time at 1800×g for 15 minutes. The overall supernatant is then centrifuged at 25000×g for 30 minutes at 4° C. The resulting membrane pellet is resuspended in homogenization buffer (without DNAse I) containing protease inhibitors at approximately 1 to 3 mg/mL and stored as aliquots in a−80° C. freezer until use.
The human Gcg receptor binding assays are performed using a Scintillation Proximity Assay (SPA) format with wheat germ agglutinin (WGA) beads (Perkin Elmer). The binding buffer contains 25 mM 4-(2-hydroxyethyl)-1-piperazineethanesulfonic acid (HEPES), pH 7.4, 2.5 mM CaCl2, 1 mM MgCl2, 0.1% (w/v) bacitracin (Research Products), 0.003% (w/v) Polyoxyethylenesorbitan monolaurate (TWEEN©-20), and Roche Complete™ Protease Inhibitors without EDTA. […] Plates are sealed and mixed on a plate shaker (setting 6) for 1 minute and read with a PerkinElmer Trilux MicroBeta© scintillation counter after 12 hours of incubation/settling time at room temperature.
(§4) Data are analyzed using four-parameter (curve maximum, curve minimum, IC50, Hill slope) nonlinear regression routines (Genedata Screener, version 12.0.4, Genedata AG, Basal, Switzerland). […] Values for Ki are reported as the geometric mean, with error expressed as the standard error of the mean (SEM) and n is equal to the number of independent replicates (determined in assays performed on different days). […] The Ki Ratio is a rapid indication of the apparent affinity of a peptide compared to the native control peptide. […] SEM is only calculated when n=2 or greater non-qualified results exist. Means are expressed as GeoMetric means with the standard error of the mean (SEM) and the number of replicates (n) indicated in parenthesis.

human GIP receptor = target: T2, human GIP receptor (Homo sapiens, UniProt P48546); assay: [125I]-GIP binding (SPA), human GIP receptor; conditions: read-out: hGIPR Ki, nM (SEM, n)
T2 construct: expressed in transfected cells; crude membranes
T2 sequence (P48546 22-466): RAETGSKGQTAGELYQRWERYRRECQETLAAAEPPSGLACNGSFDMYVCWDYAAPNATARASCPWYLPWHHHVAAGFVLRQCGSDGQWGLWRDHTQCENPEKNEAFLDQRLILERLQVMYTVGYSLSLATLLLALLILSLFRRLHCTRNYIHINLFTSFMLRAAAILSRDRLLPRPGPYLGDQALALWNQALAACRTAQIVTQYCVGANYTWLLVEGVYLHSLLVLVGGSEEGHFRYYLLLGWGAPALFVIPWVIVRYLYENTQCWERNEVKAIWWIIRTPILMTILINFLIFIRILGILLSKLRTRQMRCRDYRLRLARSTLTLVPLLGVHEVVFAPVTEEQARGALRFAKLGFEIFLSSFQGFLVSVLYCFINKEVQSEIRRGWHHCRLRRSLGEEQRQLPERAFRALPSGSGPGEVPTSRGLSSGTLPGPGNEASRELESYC
Experimental: as §1, §2, §3
The binding buffer contains 25 mM HEPES, pH 7.4, 2.5 mM CaCl2, 1 mM MgCl2, 0.1% (w/v) bacitracin, 0.003% (w/v) TWEEN©-20, and Roche Complete™ Protease Inhibitors without EDTA. Peptides and GIP are thawed and 3 fold serially diluted in 100% DMSO (10 point concentration response curves). […] Plates are sealed and mixed on a plate shaker (setting 6) for 1 minute and read with a PerkinElmer Trilux MicroBeta© scintillation counter after 2.5 to 12 hours of incubation/settling time at room temperature.
as §4

[1] = target: human GLP-1 receptor (GLP-1R) (Homo sapiens, UniProt P43220); assay: cAMP pharmacological functional assay in presence of casein, hGLP-1R; assay type: cell-based; conditions: HEK293 cells expressing hGLP-1R, 0.1% Casein, geometric mean; read-out: hGLP1R cAMP Rel EC50 nM (SEM, n)
Sequence of human GLP-1 receptor (GLP-1R) (P43220 24-463): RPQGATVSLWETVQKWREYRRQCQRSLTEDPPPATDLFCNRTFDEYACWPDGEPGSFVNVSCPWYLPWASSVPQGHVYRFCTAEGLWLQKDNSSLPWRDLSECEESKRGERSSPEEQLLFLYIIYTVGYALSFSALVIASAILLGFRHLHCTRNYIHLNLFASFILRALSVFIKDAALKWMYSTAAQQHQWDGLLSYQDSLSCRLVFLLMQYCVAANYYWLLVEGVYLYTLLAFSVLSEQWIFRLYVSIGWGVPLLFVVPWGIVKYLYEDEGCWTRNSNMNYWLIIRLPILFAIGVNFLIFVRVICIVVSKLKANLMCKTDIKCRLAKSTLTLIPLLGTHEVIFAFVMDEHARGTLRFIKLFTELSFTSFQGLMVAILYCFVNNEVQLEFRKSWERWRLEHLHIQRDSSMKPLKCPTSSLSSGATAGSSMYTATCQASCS

[2] = target: T3, gastric inhibitory peptide receptor (GIPR) (Homo sapiens, UniProt P48546); assay: cAMP pharmacological functional assay in presence of casein, hGIPR; assay type: cell-based; conditions: HEK293 cells expressing hGIPR, 0.1% Casein, geometric mean; read-out: hGIPR cAMP Rel EC50 nM (SEM, n)
T3 sequence (P48546 22-466): T2 sequence (P48546 22-466)

human GLP-1R = human GLP-1R (Homo sapiens, UniProt P43220); assay: [125I]-GLP-1 binding (SPA), human GLP-1 receptor; design: expressed in transfected cells; crude membranes; conditions: read-out: hGLP1R Ki, (nM) (SEM, n)
Sequence of human GLP-1R (P43220 24-463): as above
Experimental: as §1, §2, §3
The binding buffer contains 25 mM HEPES, pH 7.4, 2.5 mM CaCl2, 1 mM MgCl2, 0.1% (w/v) bacitracin, 0.003% (w/v) TWEEN©-20, and Roche Complete™ Protease Inhibitors without EDTA.
as §4

CC[C@H](C)[C@H](NC(=O)[C@H](CC(C)C)NC(=O)[C@H](Cc1ccc(O)cc1)NC(=O)[C@@H](CCC(=O)O)NC(=O)[C@@H](NC(=O)[C@H](Cc1ccccc1)NC(=O)[C@H](CCC(=O)O)NC(=O)C(C)(C)NC(=O)[C@H](CCC(N)=O)NC(=O)[C@H](C)NC(=O)[C@H](CCCCNC(=O)COCCOCCNC(=O)COCCOCCNC(=O)CC[C@H](NC(=O)CCCCCCCCCCCCCCCCCCC(=O)O)C(=O)O)NC(=O)[C@H](CCCCN)NC(=O)[C@H](CC(=O)O)NC(=O)[C@H](CC(C)C)NC(=O)[C@](C)(CC(C)C)NC(=O)[C@@H](NC(=O)[C@H](CO)NC(=O)[C@H](Cc1ccc(O)cc1)NC(=O)[C@H](CC(=O)O)NC(=O)[C@H](CO)NC(=O)[C@@H](NC(=O)[C@](C)(Cc1ccccc1)NC(=O)[C@@H](NC(=O)CNC(=O)[C@H](CCC(=O)O)NC(=O)C(C)(C)NC(=O)[C@@H](N)Cc1ccc(O)cc1)[C@@H](C)O)[C@@H](C)O)[C@@H](C)CC)[C@@H](C)CC)C(=O)N[C@@H](CCC(=O)O)C(=O)NCC(=O)NCC(=O)N1CCC[C@H]1C(=O)N[C@@H](CO)C(=O)N[C@@H](CO)C(=O)NCC(N)=O [Example 228] (H-Y[Aib]EGT[αMeF]TSDYSI[αMeL]LDKK([AEEA-AEEA-γGlu-C20 diacid])AQ[Aib]EFI[dE]YLIEGGPSSG-NH2)
Ki (human Gcg receptor): 182 nM | Ki (human GIP receptor): 0.028 nM | EC50 [1]: 0.0282 nM | EC50 [2]: 0.0503 nM | Ki (human GLP-1R): 2.43 nM

CC[C@H](C)[C@H](NC(=O)[C@H](CC(C)C)NC(=O)[C@H](Cc1ccc(O)cc1)NC(=O)[C@@H](CCC(=O)O)NC(=O)[C@@H](NC(=O)[C@H](Cc1ccccc1)NC(=O)[C@H](CCC(=O)O)NC(=O)C(C)(C)NC(=O)[C@H](CCC(N)=O)NC(=O)[C@H](C)NC(=O)[C@H](CCCCNC(=O)COCCOCCNC(=O)COCCOCCNC(=O)CC[C@H](NC(=O)CCCCCCCCCCCCCCCCCCC(=O)O)C(=O)O)NC(=O)[C@H](CCC(=O)O)NC(=O)[C@H](CC(=O)O)NC(=O)[C@H](CC(C)C)NC(=O)[C@](C)(CC(C)C)NC(=O)[C@H](CO)NC(=O)[C@H](Cc1ccc(O)cc1)NC(=O)[C@H](CC(=O)O)NC(=O)[C@H](CO)NC(=O)[C@@H](NC(=O)[C@](C)(Cc1ccccc1F)NC(=O)[C@@H](NC(=O)CNC(=O)[C@H](CCC(=O)O)NC(=O)C(C)(C)NC(=O)[C@@H](N)Cc1ccc(O)cc1)[C@@H](C)O)[C@@H](C)O)[C@@H](C)CC)C(=O)N[C@@H](CCC(=O)O)C(=O)NCC(=O)NCC(=O)N1CCC[C@H]1C(=O)N[C@@H](CO)C(=O)N[C@@H](CO)C(=O)NCC(=O)N[C@@H](C)C(=O)N1CCC[C@H]1C(=O)N1CCC[C@H]1C(=O)N1CCC[C@H]1C(=O)N[C@@H](CO)C(N)=O [Example 229] (H-Y[Aib]EGT[αMePhe(2-F)]TSDYS[αMeL]LDEK([AEEA-AEEA-γGlu-C20 diacid])AQ[Aib]EFI[dE]YLIEGGPSSGAPPPS-NH2)
Ki (human Gcg receptor): > 1100 nM | Ki (human GIP receptor): 2.47 nM | EC50 [1]: 2.11 nM | EC50 [2]: 4.79 nM | Ki (human GLP-1R): 36.2 nM

CC[C@H](C)[C@H](NC(=O)[C@H](CC(C)C)NC(=O)[C@H](Cc1ccc(O)cc1)NC(=O)[C@@H](CCC(=O)O)NC(=O)[C@@H](NC(=O)[C@H](Cc1ccccc1)NC(=O)[C@H](CCC(=O)O)NC(=O)C(C)(C)NC(=O)[C@H](CCC(N)=O)NC(=O)[C@H](C)NC(=O)[C@H](CCCCNC(=O)COCCOCCNC(=O)COCCOCCNC(=O)CC[C@H](NC(=O)CCCCCCCCCCCCCCCCC(=O)O)C(=O)O)NC(=O)[C@H](CCCCN)NC(=O)[C@H](CC(=O)O)NC(=O)[C@H](CC(C)C)NC(=O)C(C)(CC(C)C)NC(=O)[C@@H](NC(=O)[C@H](CO)NC(=O)[C@H](Cc1ccc(O)cc1)NC(=O)[C@H](CC(=O)O)NC(=O)[C@H](CO)NC(=O)[C@@H](NC(=O)C(C)(Cc1ccccc1F)NC(=O)[C@@H](NC(=O)CNC(=O)[C@H](CCC(=O)O)NC(=O)C(C)(C)NC(=O)[C@@H](N)Cc1ccc(O)cc1)[C@@H](C)O)[C@@H](C)O)[C@@H](C)CC)[C@@H](C)CC)C(=O)N[C@@H](CCC(=O)O)C(=O)NCC(=O)NCC(=O)N1CCC[C@H]1C(=O)N[C@@H](CO)C(=O)N[C@@H](CO)C(=O)NCC(=O)N[C@@H](C)C(=O)N1CCC[C@H]1C(=O)N1CCC[C@H]1C(=O)N1CCC[C@H]1C(=O)N[C@@H](CO)C(N)=O (stereo partly shown) [Example 231]
Ki (human Gcg receptor): 440 nM | Ki (human GIP receptor): 0.0394 nM | EC50 [1]: 0.0611 nM | EC50 [2]: 0.0253 nM | Ki (human GLP-1R): 3.03 nM

CC[C@H](C)[C@H](NC(=O)[C@H](CC(C)C)NC(=O)[C@H](Cc1ccc(O)cc1)NC(=O)[C@@H](CCC(=O)O)NC(=O)[C@@H](NC(=O)[C@H](Cc1ccccc1)NC(=O)[C@H](CCC(=O)O)NC(=O)C(C)(C)NC(=O)[C@H](CCC(N)=O)NC(=O)[C@H](C)NC(=O)[C@H](CCCCNC(=O)COCCOCCNC(=O)COCCOCCNC(=O)CC[C@H](NC(=O)CCCCCCCCCCCCCCCCCCC(=O)O)C(=O)O)NC(=O)[C@H](CCC(=O)O)NC(=O)[C@H](CC(=O)O)NC(=O)[C@H](CC(C)C)NC(=O)[C@](C)(CC(C)C)NC(=O)[C@@H](NC(=O)[C@H](CO)NC(=O)[C@H](Cc1ccncc1)NC(=O)[C@H](CC(=O)O)NC(=O)[C@H](CO)NC(=O)[C@@H](NC(=O)[C@](C)(Cc1ccccc1F)NC(=O)[C@@H](NC(=O)CNC(=O)[C@H](CCC(=O)O)NC(=O)C(C)(C)NC(=O)[C@@H](N)Cc1ccc(O)cc1)[C@@H](C)O)[C@@H](C)O)[C@@H](C)CC)[C@@H](C)CC)C(=O)N[C@@H](CCC(=O)O)C(=O)NCC(=O)NCC(=O)N1CCC[C@H]1C(=O)N[C@@H](CO)C(=O)N[C@@H](CO)C(=O)NCC(=O)N[C@@H](C)C(=O)N1CCC[C@H]1C(=O)N1CCC[C@H]1C(=O)N1CCC[C@H]1C(=O)N[C@@H](CO)C(N)=O [Example 182] (H-Y[Aib]EGT[αMePhe(2-F)]TSD[4Pal]SI[αMeL]LDEK([AEEA-AEEA-γGlu-C20 diacid])AQ[Aib]EFI[dE]YLIEGGPSSGAPPPS-NH2; N-terminus assumed)
Ki (human Gcg receptor): 565 nM | Ki (human GIP receptor): 0.0669 nM | EC50 [2]: 0.0442 nM | Ki (human GLP-1R): 4.64 nM
